From patent publication US20250243160A1, “INDOLE DERIVATIVES FOR TARGETING AUTOPHAGY” (Automera PTE. LTD, priority 2024, published 2025) come the findings set out here.

The target in one assay is Recombinant p62 protein (Homo sapiens, UniProt Q13501). The assay is described as follows: Surface plasmon resonance (SPR) compound binding to p62. The following applies: 15° C. How it is done:
Recombinant p62 protein was buffer exchanged into Biacore SPR running buffer (Cytiva 100671) using the Slide-A-Lyzer Mini Dialysis system 7K MWCO (Thermo Fisher Scientific, Cat no. 69560). The final protein concentration was determined using the Nanodrop One spectrophotometer (Thermo Fisher Scientific, cat no. ND-ONE-W), with calibration for the dialysis buffer.
The prepared protein was diluted in sodium acetate buffer (NaAc, pH 5.5, Cytiva) to concentrations ranging from approximately 0.25-40 μg/mL. Post-immobilization, the protein required approximately 16 hours of equilibration in running buffer supplemented with 1% DMSO at 15° C. to ensure adequate surface equilibration and protein reorganization.
All SPR experiments were conducted at a constant temperature of 15° C. The SPR chip surface was activated using EDC/NHS for a contact time of 6-10 min at a flow rate of 10 μL/min. This was followed by protein immobilization for 2100 seconds and ethanolamine capping for 420 seconds, both at the same flow rate. Immediately after immobilization, the NH2-REEE peptide was analyzed in Single Cycle Kinetics mode (SCK) to verify surface activity, ensuring it binds the sample with the published affinity (˜20 μM by SPR).
For general compound binding studies, experiments were performed at 15° C. using a running buffer composed of 10 mM HEPES, 150 mM NaCl, 1 mM DTT, 0.05% Tween 20, and 1% DMSO at pH 7.4. The test compound was initially prepared at a 20 mM concentration in DMSO and subsequently titrated in 2-fold dilutions. For each assay, 2 μL of the compound was mixed with 198 μL of the running buffer, and the mixture was thoroughly pipetted approximately 15 times for homogenization.
A series of blank injections (0 μM concentration) were included for double referencing, with at least 8 or 16 per plate depending on the format. Typical injection parameters were 120 seconds for association and 180 seconds for dissociation at a flow rate of […]. A four-point solvent correction was prepared with DMSO concentrations ranging from 2% to 0.5% in the buffer. Post each compound injection, the system's needles were washed with 50% DMSO.
Analysis of the SPR data was conducted using the Cytiva Evaluation software. The binding levels at the late time-point of each interaction were corrected for reference, then normalized to percentage bound values to account for variations in immobilization levels, protein molecular weight, and compound molecular weight.
Compound binding studies were carried out according to experimental procedures above and SPR % occupancy was determined and summarized in Table 7.

For another assay, the system named is LC3 protein. The experiment in a line: LC3 lipidation (LC3-II/LC3-I) assay by Western blot in HeLa cells. It counts as cell-based. The following applies: 24 hours treatment, relative to vehicle control (DMSO). Here is the method:
HeLa cells were seeded in 6-well plates (700,000 cells) and allowed to adhere overnight. Media was replaced one hour before administering either vehicle (DMSO) or test compounds. After 24 hours of treatment, the media was discarded, and cells were rinsed once with ice-cold 1×PBS before detached from plates with ice-cold RIPA Lysis and Extraction Buffer (Thermo Fisher Scientific) which was supplemented with protease and phosphatase inhibitors. The resulting cell suspensions were transferred to pre-chilled microcentrifuge tubes, incubated on ice for 20 min with intermittent mixing and then centrifuged at 12,000 rpm for 20 min at 4° C. The supernatants were then aspirated slowly and transferred into new tubes kept on ice. The protein concentration in the samples was determined using BCA kit (Thermo Fisher Scientific) as per manufacturer's instructions.
For the p62 oligomerization and LC3 lipidation assays, cell lysates were prepared using RIPA buffer supplemented with 2% SDS and benzonase (Sigma). The lysates were then combined with 4× Laemmli protein sample buffer (Bio-Rad), heated at 70° C. for 10 min and subjected to a brief centrifugation of 10-15 seconds.
For p62 oligomerization and LC3 lipidation assays, lysates containing 30 μg of protein and for BRD4 and FKBP12(F36V) degradation assays, lysates containing 20 μg of protein, were loaded slowly into the wells of 4-20% gradient Tris-glycine gels (Bio-Rad). The gels were run at 100V until completion and transferred onto PVDF membranes. Membranes were blocked using 5% milk in TBS-Tween (0.1%) buffer at room temperature for 1 hour. The membranes were incubated with primary antibody in 5% milk-TBST with shaking, overnight at 4° C. The primary antibodies used were: p62 (Novus Biologicals 2C11, H00008878-MO1), LC3A/B (Cell Signalling Technology D3U4C, 12741S), FKBP12 (Abcam ab24373), BRD4 (Cell Signalling Technology E2A7X, 13440S), GAPDH (Cell Signalling Technology D4C6R, 97166S), and β-Actin (Proteintech 66009-1-Ig). Following primary antibody incubation, membranes were washed thrice with TBST 10 min before and after incubation with secondary-HRP conjugated antibody in 5% milk-TBST for 1 hour at room temperature. The secondary antibodies used were: Anti-Mouse IgG HRP Conjugate (Promega W4021B) and Anti-Rabbit IgG HRP Conjugate (Promega W4011). For the p62 oligomerization assay, the total protein levels were assessed using Ponceau staining (Thermo Fisher Scientific) of PVDF membrane as per recommendation by manufacturer's guidelines.
Imaging was acquired using SuperSignal™ West Pico PLUS Chemiluminescent Substrate (Thermo Fisher Scientific) with iBright Invitrogen FL100 imaging system. Band signal intensity, reflective of protein concentrations, were quantified using Invitrogen™ iBright™ Analysis and Image J software.
HeLa cells were treated with compounds for 24 hours to evaluate the effect of these compounds on LC3-II/LC3-I levels, a measure of autophagy activation. The changes in levels of LC3-I, LC3-II and […] (loading control) were assessed by Western blotting, as described in experimental procedures. The fold increase of LC3-II/LC3-I levels induced by compound treatment relative to vehicle control (DMSO) was determined and summarized in Table 9. Specifically, FIGS. 3A-C show Western blot images and their corresponding quantification showing the lipidation levels of LC3 protein (LC3-II/LC3-I) by 24 hours compound treatments at listed concentrations, relative to vehicle control (DMSO) in HeLa cells.
On the technique in general: Immunoblotting shows a protein as a band on a membrane.

Bounds are passed on as bounds.

Recombinant p62 protein, sequence (Q13501 whole entry, species assumed): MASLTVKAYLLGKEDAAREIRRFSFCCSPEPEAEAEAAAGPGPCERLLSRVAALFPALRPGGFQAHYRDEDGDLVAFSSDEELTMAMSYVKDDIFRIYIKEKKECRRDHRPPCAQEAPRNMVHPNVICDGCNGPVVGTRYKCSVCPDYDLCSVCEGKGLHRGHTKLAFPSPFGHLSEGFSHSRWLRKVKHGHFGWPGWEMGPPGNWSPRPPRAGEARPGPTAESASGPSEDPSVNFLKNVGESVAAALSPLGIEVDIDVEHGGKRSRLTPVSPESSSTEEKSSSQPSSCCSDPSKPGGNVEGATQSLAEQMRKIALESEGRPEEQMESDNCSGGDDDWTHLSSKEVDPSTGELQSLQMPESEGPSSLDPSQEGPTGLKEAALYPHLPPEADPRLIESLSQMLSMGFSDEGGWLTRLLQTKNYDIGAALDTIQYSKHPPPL

`OCCNCc1cc(F)cc2c1ccn2Cc1ccc(Cl)cc1` [Compound 45, 2-(((1-(4-chlorobenzyl)-6-fluoro-1H-indol-4-yl)methyl)amino)ethan-1-ol]: the receptor occupancy at 100 µM on Recombinant p62 protein fell in the range of 30 to 70%. The “LC3 lipidation (fold increase of LC3-II/LC3-I levels)” value in the assay on LC3 protein is recorded as “++ (>2-fold change in LC3-II/LC3-I relative to DMSO control)”.
As for `OCCNCc1cccc2c1ccn2Cc1ccccc1` [Compound 1, 2-(((1-benzyl-1H-indol-4-yl)methyl)amino)ethan-1-ol], at Recombinant p62 protein, the receptor occupancy at 100 µM was 30 to 70%. The “LC3 lipidation (fold increase of LC3-II/LC3-I levels)” value in the assay on LC3 protein is listed as “+ (<2-fold change in LC3-II/LC3-I relative to DMSO control)”.
On the same counts, the results for `OCCNCc1cc(F)cc2c1ccn2Cc1ccc(F)cc1` [Compound 44] are > 70% and “++ (>2-fold change in LC3-II/LC3-I relative to DMSO control)”.
